Entries after “also recorded” stand apart in the source; their conditions may differ.
What was measured:
[1] = biological target: T1, Transporter, DAT (Homo sapiens, UniProt Q01959); experiment: Radioligand displacement (Ricerca); assay type: binding
T1 construct: Ricerca (contract panel)

[2] = biological target: T2, Interleukin IL-1 (Mus musculus, UniProt P13504); experiment: Radioligand displacement (Ricerca); assay type: binding
T2 construct: Ricerca (contract laboratory that ran the panel)

[3] = biological target: T3, GIRK1/3 (Homo sapiens, UniProt P48549+Q92806); experiment: Thallium flux assay, HEK-293 cells expressing GIRK1/3; assay type: cell-based; conditions: cell line GIRK1-3; average ± SEM
T3 construct: expressed in transfected cells; host or cells: HEK-293
From the text: (§1) Cell Line Construction and Cell Culture. HEK-293 cells co-expressing human GIRK1/2 and rat mGlu8 were generated as previously described (Niswender et al., 2008). A HEK-293 cell line (ATCC, Manassas, Va.) expressing human GIRK1 and human GIRK2 was constructed by transfecting HEK-293 cells with GIRK1 and GIRK2 (Origene, Rockville, Md.) cloned into the pBudCE4.1 vector (Life Technologies, Carlsbad, Calif.) using FuGene 6 (Promega, Madison, Wis.) transfection reagent. Unless otherwise noted, other ion channel-expressing cells were prepared by transfecting HEK-293 cells with individual or combinations of subunits: GIRK1, pCMV6-A-BSD; GIRK2, pCMV6-A-puro; GIRK3, pCMV6-A-hygro; GIRK4, pCMV6-A-AC; Kv7.4, pIRESneo3. The Kir2.1 and hERG-expressing cell lines were made by transfecting T-REx-293 cells (Life Technologies, Carlsbad, Calif.) with Kir2.1 and Kv11.1, respectively, cloned into pcDNA5TO. Monoclonal cell lines were produced by limiting-dilution cloning of antibiotic-resistant cells and functional selection using the thallium flux assay described below. Unless otherwise noted, cells were maintained in Minimal Essential Medium, Alpha Medium (Mediatech, Manassas, Va.) supplemented with 10% fetal bovine serum (Sigma-Aldrich, Saint Louis, Mo.) and GlutaGro (Mediatech, Manassas, Va.), referred to henceforth as cell culture medium. […]

[4] = tested on: Nicotinic acetylcholine; experiment: Radioligand displacement (Ricerca), first nicotinic entry; assay type: binding, human; conditions: 10 μM; first Nicotinic acetylcholine line
[5] = tested on: Imidazoline, I2; experiment: Radioligand displacement (Ricerca); assay type: binding, rat; conditions: 10 μM
[6] = biological target: T4, GIRK2 (Homo sapiens, UniProt P48051); experiment: Thallium flux assay, HEK-293 cells expressing GIRK2 alone; assay type: cell-based; conditions: cell line GIRK2
T4 construct: expressed in transfected cells; host or cells: HEK-293
T4 sequence (P48051 1-423): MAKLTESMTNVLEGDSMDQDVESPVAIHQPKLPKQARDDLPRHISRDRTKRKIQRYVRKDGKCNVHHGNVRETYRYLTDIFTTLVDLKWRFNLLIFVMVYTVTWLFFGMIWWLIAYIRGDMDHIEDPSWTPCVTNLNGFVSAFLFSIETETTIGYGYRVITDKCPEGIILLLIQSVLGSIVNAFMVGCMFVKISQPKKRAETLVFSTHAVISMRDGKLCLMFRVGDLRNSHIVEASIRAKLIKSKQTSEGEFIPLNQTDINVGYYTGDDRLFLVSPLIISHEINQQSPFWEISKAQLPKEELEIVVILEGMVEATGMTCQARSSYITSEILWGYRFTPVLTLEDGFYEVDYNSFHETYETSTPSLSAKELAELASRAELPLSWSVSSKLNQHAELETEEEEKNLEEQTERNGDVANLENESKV
From the text: as §1

T3 sequence (P48549 whole entry): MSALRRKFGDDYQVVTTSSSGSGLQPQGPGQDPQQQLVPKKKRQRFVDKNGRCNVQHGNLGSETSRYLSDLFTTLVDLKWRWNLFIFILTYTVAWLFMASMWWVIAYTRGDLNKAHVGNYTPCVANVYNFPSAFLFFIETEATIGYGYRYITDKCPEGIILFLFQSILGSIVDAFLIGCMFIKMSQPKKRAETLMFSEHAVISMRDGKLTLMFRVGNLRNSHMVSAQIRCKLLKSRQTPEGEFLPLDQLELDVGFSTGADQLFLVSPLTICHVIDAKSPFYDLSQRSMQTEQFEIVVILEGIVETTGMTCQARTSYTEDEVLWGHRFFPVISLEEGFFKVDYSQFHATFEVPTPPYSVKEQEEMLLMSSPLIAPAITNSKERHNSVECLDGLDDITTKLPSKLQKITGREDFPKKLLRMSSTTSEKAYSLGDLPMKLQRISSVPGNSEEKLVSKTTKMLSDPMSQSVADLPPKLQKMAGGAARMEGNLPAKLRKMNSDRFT
T3 sequence (Q92806 whole entry): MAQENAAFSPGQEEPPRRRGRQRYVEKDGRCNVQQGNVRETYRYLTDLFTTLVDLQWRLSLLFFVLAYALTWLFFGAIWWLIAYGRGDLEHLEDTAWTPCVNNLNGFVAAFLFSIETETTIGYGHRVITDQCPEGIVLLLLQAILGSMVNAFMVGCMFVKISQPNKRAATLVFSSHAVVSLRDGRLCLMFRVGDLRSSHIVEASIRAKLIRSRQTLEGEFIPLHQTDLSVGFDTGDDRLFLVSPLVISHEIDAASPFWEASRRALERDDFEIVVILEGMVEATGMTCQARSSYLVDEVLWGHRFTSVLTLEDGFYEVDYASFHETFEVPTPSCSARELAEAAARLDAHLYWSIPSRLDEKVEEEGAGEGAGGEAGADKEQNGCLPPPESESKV
T2 sequence (P13504 20-576): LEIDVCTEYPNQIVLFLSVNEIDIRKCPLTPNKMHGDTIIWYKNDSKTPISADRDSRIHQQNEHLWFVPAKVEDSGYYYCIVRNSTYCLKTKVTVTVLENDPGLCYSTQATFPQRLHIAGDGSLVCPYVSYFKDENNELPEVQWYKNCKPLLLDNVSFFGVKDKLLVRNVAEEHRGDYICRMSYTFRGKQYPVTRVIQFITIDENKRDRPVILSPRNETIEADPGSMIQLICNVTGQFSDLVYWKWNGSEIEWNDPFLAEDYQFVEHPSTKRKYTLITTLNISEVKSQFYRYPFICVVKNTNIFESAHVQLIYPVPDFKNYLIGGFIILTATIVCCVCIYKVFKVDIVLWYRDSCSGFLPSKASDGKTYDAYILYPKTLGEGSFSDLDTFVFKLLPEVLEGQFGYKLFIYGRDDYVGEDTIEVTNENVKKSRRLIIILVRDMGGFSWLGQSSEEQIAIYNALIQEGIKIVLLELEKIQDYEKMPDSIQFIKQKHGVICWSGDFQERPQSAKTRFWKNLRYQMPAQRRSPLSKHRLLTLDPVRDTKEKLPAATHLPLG
T1 sequence (Q01959 whole entry): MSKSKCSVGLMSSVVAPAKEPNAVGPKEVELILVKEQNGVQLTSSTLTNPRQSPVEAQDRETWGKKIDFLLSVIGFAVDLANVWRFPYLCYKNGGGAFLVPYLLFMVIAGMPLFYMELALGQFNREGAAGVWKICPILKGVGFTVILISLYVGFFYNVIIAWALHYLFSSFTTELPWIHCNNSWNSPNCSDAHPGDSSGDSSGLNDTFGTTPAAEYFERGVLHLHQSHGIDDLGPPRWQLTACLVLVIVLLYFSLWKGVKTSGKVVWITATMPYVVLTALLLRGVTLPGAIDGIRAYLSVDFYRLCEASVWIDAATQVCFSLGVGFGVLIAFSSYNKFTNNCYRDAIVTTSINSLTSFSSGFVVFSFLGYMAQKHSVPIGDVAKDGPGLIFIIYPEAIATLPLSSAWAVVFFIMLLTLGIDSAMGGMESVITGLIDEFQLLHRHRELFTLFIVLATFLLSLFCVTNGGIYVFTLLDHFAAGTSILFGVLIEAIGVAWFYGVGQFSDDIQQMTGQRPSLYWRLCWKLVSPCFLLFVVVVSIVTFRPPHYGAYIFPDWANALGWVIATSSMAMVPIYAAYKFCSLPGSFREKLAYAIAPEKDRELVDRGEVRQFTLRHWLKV

**Q.** How did the inhibition at 10 µM [1] turn out when `Cc1cc(NC(=O)Nc2ccc(F)c(F)c2)n(-c2ccccc2)n1` [VU0456810, 1-(3,4-difluorophenyl)-3-(3-methyl-1-phenyl-1H-pyrazol-5-yl)urea] was run?
**A.** 12%

**Q.** What about the inhibition at 10 µM [2] of the same compound?
**A.** 2%

**Q.** And the EC50 [3]?
**A.** 914 ± 264 nM

**Q.** What about the “EC50 Thallium Flux” value [3] of the same compound?
**A.** able to activate

**Q.** What about the “% Inhibition” value [4] of the same compound?
**A.** 0%

**Q.** What about the “% Inhibition” value [5] of the same compound?
**A.** 20%

**Q.** And the “EC50 Thallium Flux” value [6]?
**A.** complete inability to modulate; also recorded: Inactive

**Q.** And the “EC50 Thallium Flux” value ([6]; listed as 2)?
**A.** inactive

— US9067894B1, “Compound, composition, and method of activating GIRK potassium channel and use of same for treating conditions of interest” (Vanderbilt University, priority 2013, dated 2015)
